Measurements reported in US10123969B2, “Osmotic enhancement of drug/therapeutic delivery to the brain following infusion or injection into the cerebrospinal fluid” (Wisconsin Alumni Research Foundation, priority 2015, dated 2018).
Converted amounts (≈) assume the structure as drawn. “And” between values parts separate entries of the source, which are not always exact repeats. Equal entries are not always repeated. “Also recorded” adds a separate entry of the source. Where two headings read alike, the source gives them in different places.

How the values were obtained:
[1] = cited from earlier work
[2] = Osmolality of mannitol infusion solutions; assay type: physicochemical
Method: (§1) AlexaFluor 488 goat-anti-rabbit IgG was prepared in 0.27 M or 0.75 M mannitol in 0.01M PBS using 0.5 mL Amicon Ultra 100 kDa molecular weight cutoff centrifugal filters for buffer exchange. IgG was added to the filter and washed/spun from 0.5 mL three times with 0.27 M or 0.75 M mannitol solution (osmolality 507 mOsm/kg and 988 mOsm/kg, respectively); each spin was 10 minutes at 14,000 g. Recovery spin was 2 minutes at 1,000 g. Concentration of IgG protein (absorbance at 280 nm) was measured using a NanoDrop 2000 (Thermo Fisher), and after concentration/buffer exchange in mannitol the protein concentration was diluted to the same concentration so animals received identical amounts of IgG whether administered in provided buffer or buffer with mannitol.
We have measured the osmolality of both the 0.27 M mannitol (507-564 mOsm/kg) and 0.75 M mannitol (988-1126 mOsm/kg) solutions.

[3] = Perivascular counting of IgG signal in brain sections after intracisternal infusion with or without mannitol (ex vivo fluorescence, ImageJ); parameters: species or system rat
Method: Female Sprague-Dawley rats (180-240 g) were anesthetized to a surgical plane of anesthesia using 1.3 g/kg intraperitoneal urethane (boostered to effect), tracheotomized, and placed in a stereotaxic frame (Stoelting). Atropine (0.1 mg/kg every two hours) was given subcutaneously to reduce fluid secretion in lungs. An incision was made on the back of the neck and the muscles were dissected from the occipital bone to expose the atlanto-occipital membrane, which was retracted to reveal the dura overlying the cisterna magna. A custom cannula (˜1 cm long) made of 33 GA polyether ether ketone (PEEK, Plastics One) was connected to a Hamilton syringe controlled by an infusion pump (Quintessential Stereotaxic Injector, Stoelting) via polyethylene-10 tubing (Solomon Scientific). The tubing was prefilled with infusate (i.e., antibody solution with or without mannitol), the dura punctured with a dental needle, and the PEEK cannula immediately inserted at a 60-degree angle from the horizontal, advanced 1 mm into the cisterna magna, and sealed with cyanoacrylate.
For ex vivo fluorescence, AlexaFluor488 goat-anti-rabbit IgG in PBS (as provided) or in PBS with mannitol (described below) was infused at 1.6 uL/min for 50 minutes (80 uL total), a rate that is expected to be physiological as it is approximately half the CSF production rate and has been shown not to increase intracranial pressure in rats (Yang et al. J Trans Med 2013). The abdominal aorta was then cannulated and thirty minutes after the infusion completed the animal was perfused with ˜50 mL ice cold 0.01 M PBS followed by ˜450 mL 4% paraformaldehyde in 0.1 M phosphate buffer following a blood draw. The brain was removed and placed in 4% paraformaldehyde or phosphate buffered saline overnight, then sliced into 100 micrometer sections using a vibratome. Sections were imaged on an Olympus MVX10 using an Orca-flash 2.8 CMOS camera (Hamamatsu), a Lumen Dynamics X-Cite 120Q illuminator and an appropriate filter set (Chroma, U-M49002XL).
as §1
To quantify perivascular signal between treatments, images were opened in ImageJ/Fiji, thresholded to eliminate background, and the Analyze Particles command was used to count and outline ‘particles’, or perivascular signal, with no restrictions on size or circularity, as well as providing additional information such as circularity, area, and average size.

[4] = Confocal imaging of cerebral internal carotid artery: IgG access to smooth muscle basement membrane; assay type: in vivo, rat
Method: as §1

[5] = Fluorescence imaging of spinal cord slices after intrathecal infusion of IgG with or without mannitol; assay type: in vivo, rat
Method: FIG. 8 (A-C). […] The spinal cord has a simple structure—an outer spinal white matter that has few blood vessels and an inner spinal gray matter which has a dense network of blood vessels.
Female Sprague-Dawley rats (180-240 g) were anesthetized to a surgical plane of anesthesia using 1.3 g/kg intraperitoneal urethane (boostered to effect), tracheotomized, and placed in a stereotaxic frame (Stoelting). Atropine (0.1 mg/kg every two hours) was given subcutaneously to reduce fluid secretion in lungs. […]
For ex vivo fluorescence, AlexaFluor488 goat-anti-rabbit IgG in PBS (as provided) or in PBS with mannitol (described below) was infused at 1.6 uL/min for 50 minutes (80 uL total), a rate that is expected to be physiological as it is approximately half the CSF production rate and has been shown not to increase intracranial pressure in rats (Yang et al. J Trans Med 2013). […]
as §1, with “IgG was added to the filter and washed/spun from 0.5 mL three times with 0.27 M or 0.75 M mannitol solution (osmolality 507 mOsm/kg and 988 mOsm/kg, respectively); each spin was 10 minutes at 14,000 g. Recovery spin was 2 minutes at 1,000 g.” left out

[6] = hypertonic solutions, animals (Speck et al. 1988); cited from earlier work

C[C@H](N)C(=O)O [L-Alanine]
solubility ([1]; at 25 C (Needham et al. 1971)): 1.67 M (≈ 149 mg/mL)

O=C[C@H](O)[C@@H](O)[C@H](O)CO [Xylose]
solubility ([1]; Merck Index, temperature not given): 8.32 M (≈ 1250 mg/mL) | solubility ([1]; at 25 C (Gabas et al. 1988)): 3.66 M (≈ 549 mg/mL)

N[C@@H](Cc1ccccc1)C(=O)O [L-Phenylalanine]
solubility ([1]; at 25 C (Needham et al. 1971)): 0.208 M (≈ 34.4 mg/mL)

OC[C@@H](O)[C@@H](O)[C@H](O)[C@H](O)CO [mannitol]
osmolality ([2]; 0.27 M mannitol solution): 507 mOsm/kg and 507-564 mOsm/kg | osmolality ([2]; 0.75 M mannitol solution): 988 mOsm/kg and 988-1126 mOsm/kg | perivascular access of IgG (in words) ([3]; 0.27 M mannitol co-infusion vs IgG alone (controls)): improved access; also recorded: slight increase | brain distribution of IgG via the perivascular spaces (in words) ([3]; 0.75 M mannitol co-infused with labeled 150 kDa IgG): dramatically greater brain distribution | number of vessels accessed by IgG (in words) ([3]; 0.75 M mannitol co-infusion vs 0.27 M mannitol co-infusion or IgG alone): significantly increased | number of vessels with perivascular signal (in words) ([3]; IgG with 0.75 M mannitol co-infusion vs single domain antibody without mannitol): significantly higher number of vessels | dose dependence of perivascular access of IgG ([3]; mannitol between 0.27 M and 0.75 M): dose-dependent manner; also recorded: dose-dependent increase | solubility ([1]; at 40 C (just above body temperature)): 2 M (≈ 364 mg/mL) | solubility ([1]; at 40 C (just above body temperature), listed as Mannitol): 1.90 to 1.94 M | IgG access to the basement membrane of the smooth muscle layer (in words) ([4]; 0.27 M mannitol co-infusion vs IgG without mannitol): modestly increased; also recorded: no visible improvement | IgG access to the basement membrane of the smooth muscle layer (in words) ([4]; 0.75 M mannitol co-infusion vs IgG without mannitol): strikingly increased; also recorded: markedly improved; also recorded: noticeably increased | number of IgG perivascular profiles in spinal gray (in words) ([5]; 0.27 M mannitol co-infusion vs IgG alone): slight increase | number of perivascular spaces with IgG signal in spinal cord (in words) ([5]; 0.75 M mannitol co-infusion): striking increase | tolerability of intrathecal infusion [6]: well tolerated

OC[C@@H](O)[C@@H](O[C@H]1O[C@H](CO)[C@@H](O)[C@H](O)[C@H]1O)[C@H](O)[C@@H](O)CO [Maltitol]
solubility ([1]; at 37 C (body temperature)): 5.81 M (≈ 2000 mg/mL)

OC[C@@H](O)[C@@H](O)[C@H](O)[C@@H](O)CO [Sorbitol]
solubility in water ([1]; Merck Index): up to 83%

CC(C)[C@H](N)C(=O)O [L-Valine]
solubility ([1]; at 25 C (Needham et al. 1971)): 0.514 M (≈ 60.2 mg/mL)
